# Results taken from ChEMBL document CHEMBL1159134, “Heterocyclic guanidines as calcium antagonists” (Bioorg Med Chem Lett, 1994).
# Several values for one entry are separate records, joined by “and”; a condition that tells them apart may be missing. Identical values can stand only once.
# Assays:
# [1] = target: T1, Voltage-dependent L-type calcium channel subunit alpha-1C (Rattus norvegicus, UniProt P22002); test: Binding of [3H]nitrendipine to calcium channel in rat heart membranes was determined; type: cell membranes, Membrane
# T1 sequence (P22002 whole entry): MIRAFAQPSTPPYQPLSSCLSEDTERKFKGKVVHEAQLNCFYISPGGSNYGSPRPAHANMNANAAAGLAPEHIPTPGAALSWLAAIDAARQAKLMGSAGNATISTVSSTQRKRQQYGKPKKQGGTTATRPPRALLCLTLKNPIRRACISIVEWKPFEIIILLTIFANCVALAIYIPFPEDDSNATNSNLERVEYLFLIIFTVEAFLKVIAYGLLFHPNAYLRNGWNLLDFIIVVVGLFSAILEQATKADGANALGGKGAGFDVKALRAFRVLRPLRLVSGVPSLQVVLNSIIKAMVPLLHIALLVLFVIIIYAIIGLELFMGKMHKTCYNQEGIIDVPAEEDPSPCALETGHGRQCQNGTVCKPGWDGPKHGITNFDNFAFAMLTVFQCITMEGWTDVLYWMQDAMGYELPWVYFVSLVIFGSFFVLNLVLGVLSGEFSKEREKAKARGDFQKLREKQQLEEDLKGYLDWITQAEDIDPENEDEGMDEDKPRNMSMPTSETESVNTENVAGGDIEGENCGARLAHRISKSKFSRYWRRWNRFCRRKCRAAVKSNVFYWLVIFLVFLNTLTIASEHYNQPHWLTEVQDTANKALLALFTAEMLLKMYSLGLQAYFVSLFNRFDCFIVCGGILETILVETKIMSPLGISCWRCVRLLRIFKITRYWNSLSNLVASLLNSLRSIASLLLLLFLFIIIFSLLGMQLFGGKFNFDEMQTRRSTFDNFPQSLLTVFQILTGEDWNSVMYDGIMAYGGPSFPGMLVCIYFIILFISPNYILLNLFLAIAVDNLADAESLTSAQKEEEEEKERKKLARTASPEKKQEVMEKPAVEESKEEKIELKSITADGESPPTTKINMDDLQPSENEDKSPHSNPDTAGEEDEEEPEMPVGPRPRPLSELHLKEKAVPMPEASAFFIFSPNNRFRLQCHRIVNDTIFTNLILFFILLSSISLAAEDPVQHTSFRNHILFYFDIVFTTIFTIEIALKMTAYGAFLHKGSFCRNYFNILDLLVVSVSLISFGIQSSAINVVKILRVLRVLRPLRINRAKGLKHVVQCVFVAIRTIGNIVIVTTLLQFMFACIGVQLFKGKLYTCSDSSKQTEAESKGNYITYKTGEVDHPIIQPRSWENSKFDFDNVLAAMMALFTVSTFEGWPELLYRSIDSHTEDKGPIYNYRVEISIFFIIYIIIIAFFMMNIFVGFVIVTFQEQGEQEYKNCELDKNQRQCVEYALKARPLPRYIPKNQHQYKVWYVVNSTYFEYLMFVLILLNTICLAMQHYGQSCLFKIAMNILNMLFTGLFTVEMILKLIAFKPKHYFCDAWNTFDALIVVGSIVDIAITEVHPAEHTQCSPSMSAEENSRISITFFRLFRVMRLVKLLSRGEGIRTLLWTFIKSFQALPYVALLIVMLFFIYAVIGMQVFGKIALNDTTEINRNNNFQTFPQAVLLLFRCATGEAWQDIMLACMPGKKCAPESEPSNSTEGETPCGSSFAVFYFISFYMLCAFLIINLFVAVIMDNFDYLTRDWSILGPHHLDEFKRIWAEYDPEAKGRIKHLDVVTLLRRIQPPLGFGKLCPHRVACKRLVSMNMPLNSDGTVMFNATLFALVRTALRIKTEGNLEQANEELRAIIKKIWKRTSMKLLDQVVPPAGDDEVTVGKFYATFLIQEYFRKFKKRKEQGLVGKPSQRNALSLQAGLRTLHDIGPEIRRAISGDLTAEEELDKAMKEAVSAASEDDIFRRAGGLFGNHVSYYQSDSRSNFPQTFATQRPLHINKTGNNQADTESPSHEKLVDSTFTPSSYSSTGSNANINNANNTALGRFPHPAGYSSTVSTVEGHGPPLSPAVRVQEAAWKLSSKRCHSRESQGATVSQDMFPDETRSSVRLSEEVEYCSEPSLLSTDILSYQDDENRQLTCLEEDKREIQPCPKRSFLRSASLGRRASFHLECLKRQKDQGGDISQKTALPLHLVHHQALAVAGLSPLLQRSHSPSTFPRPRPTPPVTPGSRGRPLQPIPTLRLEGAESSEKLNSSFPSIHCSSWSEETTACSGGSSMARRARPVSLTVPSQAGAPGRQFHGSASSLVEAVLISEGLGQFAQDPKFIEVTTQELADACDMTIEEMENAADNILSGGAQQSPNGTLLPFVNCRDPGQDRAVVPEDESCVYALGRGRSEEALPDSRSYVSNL
# [2] = Calcium channel-blocking effect was assessed in potassium ion depolarized guinea pig ileum strips by recording the contractile responses produced by varying concentrations of calcium chloride; type: functional, tissue-based; settings: Cavia porcellus, read-out: pA2 (converted)
# [3] = target: T1, Voltage-dependent L-type calcium channel subunit alpha-1C; test: Binding of [3H]nitrendipine to calcium channel in rat heart membranes; type: cell membranes, Membrane
# [4] = target: Voltage-gated L-type calcium channel (Rattus norvegicus, UniProt P22002+Q02485+P27732); test: Binding of [3H]nitrendipine to calcium channel in rat cerebral cortex; type: tissue-based
IC50 [1],EC50 [3],EC50 [4],SMILES,Kb [2]
> 1000 nM,–,–,c1ccc(C(CCNC2=NCCCCN2)c2ccccc2)cc1,240 nM
> 1000 nM,–,–,c1ccc(C(CNC2=NCCCCN2)c2ccccc2)cc1,550 nM
–,61 nM and 34 nM,–,c1ccc([C@@H]2CCC[C@@H]2N/C2=N/CCCCCCCCCCC2)cc1,–
> 1000 nM,–,–,c1ccc(C(NC2=NCCN2)c2ccccc2)cc1,2510 nM
> 1000 nM,–,–,CN1CCN=C1NCCCC(c1ccccc1)c1ccccc1,170 nM
> 1000 nM,–,–,c1ccc(C(CCNC2=NCCN2)c2ccccc2)cc1,57.5 nM
> 1000 nM,–,–,CN1CCCN=C1NCCC(c1ccccc1)c1ccccc1,240 nM
> 1000 nM,–,–,CN1CCCN=C1NCC(c1ccccc1)c1ccccc1,1100 nM
> 1000 nM,–,–,CN1CCN=C1NCC(c1ccccc1)c1ccccc1,1860 nM
> 1000 nM,–,–,c1ccc(C(CCNC2=NCc3ccccc3CN2)c2ccccc2)cc1,50.1 nM
> 1000 nM,–,–,c1ccc(C(CNC2=N[C@H]3CCCC[C@@H]3N2)c2ccccc2)cc1,141 nM
> 1000 nM,34 nM,61 nM,CCCC(CN/C1=N/CCCCCCCCCCC1)(c1ccccc1)c1ccccc1,53.7 nM
> 1000 nM,–,–,c1ccc(C(CNC2=NCCN2)c2ccccc2)cc1,676 nM
> 1000 nM,–,–,c1ccc(C(CCN/C2=N/CCCCCN2)c2ccccc2)cc1,37.2 nM
> 1000 nM,–,–,c1ccc(C(CNC2=NCCCCCN2)c2ccccc2)cc1,251 nM
> 1000 nM,–,–,c1ccc(C(CCNC2=NCCCN2)c2ccccc2)cc1,34.7 nM
–,–,–,COc1ccc([C@@H]2Sc3ccccc3N(CCN(C)C)C(=O)[C@@H]2OC(C)=O)cc1 [DILTIAZEM],41.7 nM
> 1000 nM,–,–,c1ccc(C(CCNC2=N[C@H]3CCCC[C@@H]3N2)c2ccccc2)cc1,132 nM
> 1000 nM,–,–,c1ccc(C(CNC2=NCc3ccccc3CN2)c2ccccc2)cc1,81.3 nM
> 1000 nM,–,–,c1ccc(C(CNC2=NCCCN2)c2ccccc2)cc1,776 nM
> 1000 nM,–,–,CN1CCN=C1NCCC(c1ccccc1)c1ccccc1,257 nM
